# Measurements taken from PMC7129073 (Clinical Microbiology and Infection, 2015).
# Read-outs that look alike come from different tables or passages of the source.
# Legend:
# [1] = Phase 3 trial, complicated intra-abdominal infections; format: in vivo, human
# [2] = tested on: Pseudomonas aeruginosa (PSA); test: Vitek 2 susceptibility, urine isolates of children; format: cell-based; conditions: both departments
# Acinetobacter = test: Disk diffusion; format: cell-based; conditions: 37 isolates selected as resistant to beta-lactams
# [3] = tested on: viridans group streptococci (VGS); test: MIC; format: cell-based
# MRSA = test: Agar dilution MIC; format: cell-based, Staphylococcus aureus; conditions: for MIC50 / MIC90: Staphylococcus aureus, MRSA; for MIC range: n = 50
# [4] = tested on: Pseudomonas putida clinical isolates; test: Agar dilution MIC; format: cell-based
# S. pneumoniae (SPN) = test: NCCLS broth microdilution, fluoroquinolones 1999–2004; format: cell-based, Streptococcus pneumoniae; conditions: Streptococcus pneumoniae, read-out: MIC90 during the six years, 1999–2004
# MSSA = test: Agar dilution MIC; format: cell-based, Staphylococcus aureus; conditions: for MIC50 / MIC90: Staphylococcus aureus, MSSA; for MIC range: n = 200
# C. parapsilosis = test: Antifungal susceptibility; format: cell-based, Candida parapsilosis
# C. albicans = test: Antifungal susceptibility; format: cell-based, Candida albicans
# nontyphoidal Salmonella = test: Agar dilution, isolates from chickens 1998–2004; format: cell-based, Salmonella spp.
# [5] = tested on: Streptococcus agalactiae strains P0162 and P0425; test: Microdilution; format: cell-based
# Nocardia spp. = test: E-test on Mueller Hinton agar, 81 clinical isolates; format: cell-based; conditions: for MIC50 / MIC90: Nocardia; for MIC range: read after 48 and 72 h
# H. influenzae = test: Sensitivity of CAP pathogens with/without antibiotic pretreatment; format: cell-based, Haemophilus influenzae
# Kl. pneumoniae = test: as above; format: cell-based, Klebsiella pneumoniae
# S. -pneumoniae = test: as above; format: cell-based, Streptococcus pneumoniae
# S. pneumoniae [6] = test: E-test MIC, children with URTI, Brazil; format: cell-based, Streptococcus pneumoniae
# P. aeruginosa = test: Sensitivity of CAP pathogens with/without antibiotic pretreatment; format: cell-based, Pseudomonas aeruginosa; conditions: Abs. 3
# Other Haemophilus sp. = test: as above; format: cell-based
# Other Enterobacteriacae = test: as above; format: cell-based, Enterobacteriaceae
# S. pneumoniae [7] = test: PROTEKT Italy, NCCLS microdilution; format: cell-based, Streptococcus pneumoniae
# [8] = tested on: Other non-fermenting bacteria; test: Sensitivity of CAP pathogens with/without antibiotic pretreatment; format: cell-based
# [9] = tested on: Total pathogens in community acquired pneumonia; test: as above; format: cell-based
# S. aureus = test: as above; format: cell-based, Staphylococcus aureus
# Staph. coaq (−) = test: as above; format: cell-based, coagulase-negative Staphylococcus
# E. coli = test: as above; format: cell-based, Escherichia coli
# S. pneumoniae [10] = test: Broth microdilution; format: cell-based, Streptococcus pneumoniae; conditions: 275 isolates
# S. pyogenes = test: Sensitivity of CAP pathogens with/without antibiotic pretreatment; format: cell-based, Streptococcus pyogenes; conditions: Abs. 4
# [11] = tested on: pathogens in community acquired pneumonia of different severity; test: Sensitivity of CAP pathogens by Fine severity group; format: cell-based
# Enterococcus sp = test: Sensitivity of CAP pathogens with/without antibiotic pretreatment; format: cell-based
# [12] = tested on: viridans group streptococci (VgS) and Streptococcus bovis; test: Broth microdilution and disk diffusion; format: cell-based; conditions: nine species
# [13] = tested on: glycopeptide intermediate Staphylococcus species (GISS); test: VITEK II, screening plate and E test, blood isolates; format: cell-based, coagulase-negative Staphylococci
# E. faecium = test: E-test susceptibility; format: cell-based, Enterococcus faecium
# enterococci = test: Disk diffusion and E-test, faecal isolates of cancer patients; format: cell-based, Enterococcus; conditions: 38 strains
# E. faecalis = test: E-test susceptibility; format: cell-based, Enterococcus faecalis
# [14] = tested on: methicillin susceptible Staphylococcus aureus; test: NCCLS agar dilution MIC; format: cell-based
# [15] = tested on: methicillin resistant Staphylococcus aureus; test: NCCLS agar dilution MIC; format: cell-based; conditions: n = 53
# [16] = Linezolid in paediatric oncohaematological patients, retrospective; format: in vivo, human
# Salmonella enterica = test: VITEK, NCCLS microdilution and disc diffusion of quinolones; format: cell-based
# S. pneumoniae [17] = format: cell-based, Streptococcus pneumoniae
# Shigella spp. = test: Disk diffusion, stool isolates Tehran; format: cell-based; conditions: 96 isolates
# N.gonorrhoeae = test: microbe, parasite or virus in culture; format: cell-based; conditions: Neisseria gonorrhoeae
molecule,measurement,setting,value
imipenem/cilastatin [IMI/CIS],"clinical cure rate at TOC, ME group","[1]; TGC 100 mg then 50 mg q12h iv, IMI/CIS 500/500 mg q6h, 5–14 days",82.4%
same,nausea,[1]; adverse events,24.8%
same,vomiting,[1]; adverse events,19.4%
same,"clinical cure rate at TOC, m-mITT cohort",[1]; same regimens,78.2%
CC1(C)S[C@@H]2[C@H](NC(=O)[C@H](C(=O)O)c3ccsc3)C(=O)N2[C@H]1C(=O)O [ticarcillin],Susceptible isolates,[2],74-100%
same,resistant isolates,Acinetobacter,86.5%
COc1c(N2CCNC(C)C2)c(F)cc2c(=O)c(C(=O)O)cn(C3CC3)c12 (centres unmarked) [gatifloxacin],MIC50,[3],0.25 µg/mL
same,MIC90,[3],0.25 µg/mL
same,MIC50,MRSA,< 4 µg/mL
same,MIC90,MRSA,< 4 µg/mL
same,MIC range,MRSA,4 µg/mL
same,MIC,[4],> 128 µg/mL
same,MIC90,S. pneumoniae (SPN),0.5 µg/mL
same,resistant isolates,Acinetobacter,83.8%
same,MIC50,MSSA,< 0.0625 µg/mL
same,MIC90,MSSA,< 0.125 µg/mL
same,MIC range,MSSA,0.0625 to 4 µg/mL
C[C@@H]1[C@H](O)[C@@H](C)/C=C/C=C/CC/C=C/C=C/C=C/C=C/C(O[C@H]2O[C@H](C)[C@@H](O)[C@H](N)[C@@H]2O)CC2O[C@](O)(CC(O)C(O)CCC(O)CC(O)CC(O)CC(=O)O[C@H]1C)CC(O)C2C(=O)O (some centres unmarked) [nystatin],resistant,C. parapsilosis,10%
same,intermediate susceptibility,C. albicans,2%
same,resistance,C. albicans,2%
"NCC[C@H](O)C(=O)N[C@@H]1C[C@H](N)[C@@H](O[C@H]2O[C@H](CN)[C@@H](O)[C@H](O)[C@H]2O)[C@H](O)[C@H]1O[C@H]1O[C@H](CO)[C@@H](O)[C@H](N)[C@H]1O [AM, amikacin]",MIC50,[3],0.12 µg/mL
same,MIC90,[3],1 µg/mL
same,Susceptible isolates,[2],74-100%
same,resistance,"nontyphoidal Salmonella; Belgian collection (caecal samples; Belgium, France, Netherlands)",46%
same,resistance,nontyphoidal Salmonella; Germany (carcass meat),16%
C[C@@H]1CN(c2c(F)c(N)c3c(=O)c(C(=O)O)cn(C4CC4)c3c2F)C[C@H](C)N1 [sparfloxacin],MIC,[4],> 128 µg/mL
same,MIC,"[5]; strain P0162 (ParC Ser79Phe, GyrA Glu85Ala)",4 µg/mL
same,MIC,"[5]; strain P0425 (ParC Ser79Phe, GyrA Glu85Lys)",> 32 µg/mL
C[C@H]1COc2c(C3(N)CC3)c(F)cc3c(=O)c(C(=O)O)cn1c23 [pazufloxacin],MIC,[4],> 128 µg/mL
CC1(C)S[C@@H]2[C@H](NC(=O)[C@H](N)c3ccc(O)cc3)C(=O)N2[C@H]1C(=O)O [amoxicillin],MIC50,Nocardia spp.,12 µg/mL
same,MIC90,Nocardia spp.,32 µg/mL
same,% of sensitive strains,"H. influenzae; after pretreatment, Abs. 10",80.0%
same,% of sensitive strains,"H. influenzae; without pretreatment, Abs. 26",88.5%
same,% of sensitive strains,"Kl. pneumoniae; after pretreatment, Abs. 5",0.0%
same,% of sensitive strains,"Kl. pneumoniae; without pretreatment, Abs. 4",0.0%
same,% of sensitive strains,"S. -pneumoniae; after antibiotic pretreatment, Abs. 3",66.7%
same,% of sensitive strains,"S. -pneumoniae; without antibiotic pretreatment, Abs. 13",92.3%
same,resistant (R),S. pneumoniae [6]; 137 isolates,0.7%
same,MIC,"S. pneumoniae [6]; Streptococcus pneumoniae, read-out: MIC of the one resistant isolate",3 µg/mL
same,% of sensitive strains,P. aeruginosa; after pretreatment,0.0%
same,% of sensitive strains,P. aeruginosa; without pretreatment,0.0%
same,% of sensitive strains,"Other Haemophilus sp.; after pretreatment, Abs. 11",90.9%
same,% of sensitive strains,"Other Haemophilus sp.; without pretreatment, Abs. 21",90.5%
same,% of sensitive strains,"Other Enterobacteriacae; after pretreatment, Abs. 5",20.0%
same,% of sensitive strains,"Other Enterobacteriacae; without pretreatment, Abs. 2",50.0%
same,susceptible,S. pneumoniae [7]; year 1: 2002,93.8%
same,susceptible,S. pneumoniae [7]; year 2: 2003,96.6%
same,% of sensitive strains,"[8]; after pretreatment, Abs. 0",0.0%
same,% of sensitive strains,"[8]; without pretreatment, Abs. 1",0.0%
same,% of sensitive strains,"[9]; after pretreatment, Abs. 48",54.2%
same,% of sensitive strains,"[9]; without pretreatment, Abs. 95",69.5%
same,% of sensitive strains,"S. aureus; after pretreatment, Abs. 4",0.0%
same,% of sensitive strains,"S. aureus; without pretreatment, Abs. 11",9.1%
same,% of sensitive strains,"Staph. coaq (−); after pretreatment, Abs. 2",50.0%
same,% of sensitive strains,"Staph. coaq (−); without pretreatment, Abs. 4",50.0%
same,% of sensitive strains,"E. coli; after pretreatment, Abs. 1",100.0%
same,% of sensitive strains,"E. coli; without pretreatment, Abs. 5",60.0%
same,Susceptibility,S. pneumoniae [10],99.3%
same,% of sensitive strains,S. pyogenes; after pretreatment,75.0%
same,% of sensitive strains,S. pyogenes; without pretreatment,100.0%
same,"sensitivity, total strains",[11]; higher severity group (Fine scores >70),"55,8%"
same,"sensitivity, total strains",[11]; lower severity group (Fine scores <70),64.8%
same,% of sensitive strains,"Enterococcus sp; after pretreatment, Abs. 0",0.0%
same,% of sensitive strains,"Enterococcus sp; without pretreatment, Abs. 1",100.0%
Clc1ccc(COC(Cn2ccnc2)c2ccc(Cl)cc2Cl)cc1 (centres unmarked) [econazole],resistant and intermediate susceptibility,C. parapsilosis,63%
same,intermediate susceptibility,C. albicans,2%
Clc1ccc(COC(Cn2ccnc2)c2ccc(Cl)cc2Cl)c(Cl)c1 (centres unmarked) [miconazole],resistant and intermediate susceptibility,C. parapsilosis,50%
same,susceptibility of all tested strains,C. albicans,susceptible
quinupristin/dalfopristin,MIC50,"[3]; 107 strains, 1990–2003",0.5 µg/mL
same,MIC90,"[3]; 107 strains, 1990–2003",2 µg/mL
same,"% S, range between species",[12],99.0 – 100.0%
same,sensitivity of all GISS strains,[13],all GISS strains demonstrated sensitivity
CC(=O)NC[C@H]1CN(c2ccc(N3CCOCC3)c(F)c2)C(=O)O1 [linezolid],Susceptibility,E. faecium; ICU,98%
same,Susceptibility,E. faecium; non-ICU,99%
same,MIC50,[3],1 µg/mL
same,MIC90,[3],1 µg/mL
same,susceptibility of all isolates,[3]; NCCLS,All isolates were susceptible
same,MIC50,Nocardia spp.,1 µg/mL
same,MIC90,Nocardia spp.,2 µg/mL
same,MIC range,Nocardia spp.,0.047 to 3 mg/L
same,sensitivity of all isolated strains,enterococci,All the isolated strains were sensitive
same,MIC50,MRSA,< 2 µg/mL
same,MIC90,MRSA,< 2 µg/mL
same,MIC range,MRSA,2 µg/mL
same,Susceptibility,"E. faecalis; ICU, SRGA breakpoints, tigecycline tentative ≤2 μg/ml",98%
same,Susceptibility,E. faecalis; non-ICU,99%
same,"% S, range between species",[12],99.1 – 100.0%
same,MIC50,[14]; Staphylococcus aureus,2 µg/mL
same,MIC90,[14]; Staphylococcus aureus,2 µg/mL
same,MIC range,[14]; n = 41,0.5 to 2 mg/L
same,MIC range,[15],1 to 32 mg/L
same,clinical response,"[16]; 10 mg/kg bid iv, combined therapy, 38/50 courses",76%
same,courses discontinued due to exacerbation of cytopenia,[16]; 1 course,2%
same,eradication of Gram(+) organisms in mixed fungal and bacterial infection,[16]; 4/50 courses,8%
same,complete resolution after ineffective vancomycin therapy,[16]; 8/16,50%
same,"eradication, documented Gram(+) infection",[16]; 13/13,100%
same,complete resolution of the symptoms,[16]; 34/50 courses,68%
same,sensitivity of all GISS strains,[13],all GISS strains demonstrated sensitivity
same,MIC50,MSSA,< 2 µg/mL
same,MIC90,MSSA,< 2 µg/mL
same,MIC range,MSSA,2 µg/mL
Nc1nc(=O)[nH]cc1F [flucitozine],susceptibility of all tested strains,C. albicans,susceptible
CC1COc2c(N3CCN(C)CC3)c(F)cc3c(=O)c(C(=O)O)cn1c23 (centres unmarked) [ofloxacin],MIC,"Salmonella enterica; read-out: NCCLS MIC, 37 NAL-R strains",0.25 to 1 µg/mL
same,MIC,"Salmonella enterica; read-out: NCCLS MIC, NAL-S strains",≤ 0.06 µg/mL
same,resistant,S. pneumoniae [17],0%
same,resistant isolates,Acinetobacter,43.2%
same,sensitive,Shigella spp.,100%
same,resistance rate,[13]; 73 GISS strains,"84,9%"
same,MIC,N.gonorrhoeae; strain 76mu6,8 µg/mL
same,MIC,N.gonorrhoeae; strain 76mu10,8 µg/mL
same,MIC,N.gonorrhoeae; strain 92mu6,4 µg/mL
same,MIC,N.gonorrhoeae; strain 92mu13,4 µg/mL
C[C@@H]1[C@H](O)[C@@H](C)/C=C/C=C/C=C/C=C/C=C/C=C/C=C/[C@H](O[C@@H]2O[C@H](C)[C@@H](O)[C@H](N)[C@@H]2O)C[C@@H]2O[C@](O)(C[C@@H](O)C[C@@H](O)[C@H](O)CC[C@@H](O)C[C@@H](O)CC(=O)O[C@H]1C)C[C@H](O)[C@H]2C(=O)O [amphotericin B],resistant,C. parapsilosis,10%
same,susceptibility of all tested strains,C. albicans,susceptible
CN(C)c1ccc(O)c2c1C[C@H]1C[C@H]3[C@H](N(C)C)C(O)=C(C(N)=O)C(=O)[C@@]3(O)C(O)=C1C2=O [minocycline],MIC50,Nocardia spp.,1.5 µg/mL
same,MIC90,Nocardia spp.,3 µg/mL
same,MIC range,Nocardia spp.,0.016 to 4 mg/L
same,MIC,[4],> 16 µg/mL
same,resistant isolates,Acinetobacter,45.9%
